Legend:
Format in all cases: in vivo
[1] = system: green peach aphid (Myzus persicae); assay: B.1 Green peach aphid, systemic, artificial diet in microtiter plates; settings: for mortality at 2500 ppm: 72 h, 3 days, aphid diet, read-out: mortality in comparison with untreated controls; for mortality at 9.9 ppm / mortality at 7.9 ppm: read-out: % mortality in comparison to untreated controls, B.1
Source text: B.1 Green Peach Aphid (Myzus persicae)
For evaluating control of green peach aphid (Myzus persicae) through systemic means, the test unit consisted of 96-well-microtiter plates containing liquid artificial diet under an artificial mem brane.
The compounds were formulated using a solution containing 75% v/v water and 25% v/v DMSO. Different concentrations of formulated compounds were pipetted into the aphid diet, using a custom built pipetter, at two replications.
After application, 5-8 adult aphids were placed on the artificial membrane inside the microtiter plate wells. The aphids were then allowed to suck on the treated aphid diet and incubated at about 23±1° C. and about 50±5% relative humidity for 3 days. Aphid mortality and fecundity was then visually assessed.

[2] = system: tobacco budworm (Heliothis virescens); assay: B.2 Tobacco budworm, insect diet with eggs in microtiter plates; settings: 120 h, 5 days, egg and larval mortality, read-out: mortality in comparison with untreated controls
Description: B.2 Tobacco Budworm (Heliothis virescens)
For evaluating control of tobacco budworm (Heliothis virescens), the test unit consisted of 96-well-microtiter plates containing an insect diet and 15-25 H. virescens eggs.
The compounds were formulated using a solution containing 75% v/v water and 25% v/v DMSO. Different concentrations of formulated compounds were sprayed onto the insect diet at 10 μl, using a custom-built micro atomizer, at two replications.
After application, microtiter plates were incubated at about 28±1° C. and about 80±5% relative humidity for 5 days. Egg and larval mortality was then visually assessed.

[3] = system: boll weevil (Anthonomus grandis); assay: B.3 Boll weevil, insect diet with eggs in microtiter plates; settings: for mortality at 2500 ppm: 120 h, read-out: mortality in comparison with untreated controls; for mortality at 7.9 ppm: read-out: % mortality in comparison to untreated controls, B.3
Description: B.3 Boll Weevil (Anthonomus grandis)
For evaluating control of boll weevil (Anthonomus grandis), the test unit consisted of 96-well-microtiter plates containing an insect diet and 5-10 A. grandis eggs.
The compounds were formulated using a solution containing 75% v/v water and 25% v/v DMSO. Different concentrations of formulated compounds were sprayed onto the insect diet at 5 μl, using a custom-built micro atomizer, at two replications.
After application, microtiter plates were incubated at about 25±1° C. and about 75±5% relative humidity for 5 days. Egg and larval mortality was then visually assessed.

[4] = system: Southern Armyworm (Spodoptera eridania), 2nd Instar Larvae; assay: B.4 Southern armyworm, 2nd instar larvae, sprayed lima bean plants; settings: 96 h, 4 days after treatment, foliar spray, read-out: mortality in comparison with untreated controls
Description: B.4. Southern Armyworm (Spodoptera eridania), 2nd Instar Larvae
The active compounds were formulated by a Tecan liquid handler in 100% cyclohexanone as a 10,000-ppm solution supplied in tubes. The 10,000-ppm solution was serially diluted in 100% cyclohexanone to make interim solutions. These served as stock solutions for which final dilutions were made by the Tecan in 50% acetone:50% water (v/v) into 10 or 20 ml glass vials. A non-ionic surfactant (Kinetic@) was included in the solution at a volume of 0.01% (v/v). The vials were then inserted into an automated electrostatic sprayer equipped with an atomizing nozzle for application to plants/insects. Lima bean plants (variety Sieva) were grown 2 plants to a pot and selected for treatment at the 1st true leaf stage. Test solutions were sprayed onto the foliage by an automated electrostatic plant sprayer equipped with an atomizing spray nozzle. The plants were dried in the sprayer fume hood and then removed from the sprayer. Each pot was placed into perforated plastic bags with a zip closure. Ten to 11 armyworm larvae were placed into the bag and the bags zipped closed. Test plants were maintained in a growth room at about 25° C. and about 20-40% relative humidity for 4 days, avoiding direct exposure to fluorescent light (14:10 light:dark photoperiod) to prevent trapping of heat inside the bags. Mortality and reduced feeding were assessed 4 days after treatment, compared to untreated control plants.

[5] = system: yellow fever mosquito (Aedes aegypti); assay: whole plant or invertebrate; settings: 48 h, 2 days, larval mortality, read-out: mortality in comparison with untreated controls
Description: B.5 Yellow Fever Mosquito (Aedes aegypti)
For evaluating control of yellow fever mosquito (Aedes aegypti) the test unit consisted of 96-well-microtiter plates containing 200 μl of tap water per well and 5-15 freshly hatched A. aegypti larvae.
The active compounds were formulated using a solution containing 75% (v/v) water and 25% (v/v) DMSO. Different concentrations of formulated compounds or mixtures were sprayed onto the insect diet at 2.5 μl, using a custom-built micro atomizer, at two replications.
After application, microtiter plates were incubated at 28±1° C., 80±5% RH for 2 days. Larval mortality was then visually assessed.

[6] = system: Orchid thrips; Dichromothrips corbetti; assay: B.6 Orchid thrips, floral-immersion technique; settings: 300 ppm; 72 hours after treatment
Description: B.6 ANAPCO (Orchid thrips; Dichromothrips corbetti)
Dichromothrips corbetti adults used for bioassay are obtained from a colony maintained continuously under laboratory conditions. For testing purposes, the test compound is diluted in a 1:1 mixture of acetone:water (vol:vol), plus Kinetic at a rate of 0.01% v/v.
Thrips potency of each compound is evaluated by using a floral-immersion technique. Each orchid petal is dipped into treatment solution and allowed to dry in Petri dishes. Treated petals are placed into individual re-sealable plastic along with about 20 adult thrips. All test arenas are held under dark condition and a temperature of about 28° C. for duration of the assay. The percent mortality is recorded 72 hours after treatment.

[7] = system: Black Bean Aphid; Aphis craccivora; assay: B.7 Black bean aphid, sprayed potted bean plants; settings: 300 ppm; after 72 hours
Description: B.7 APHICR (Black Bean Aphid; Aphis craccivora)
The active compound is dissolved at the desired concentration in a mixture of 1:1 (vol:vol) distilled water:acetone. Surfactant (Kinetic) is added at a rate of 0.01% (vol/vol). The test solution is prepared at the day of use.
Potted (Kord traditional square pots Size 3″ and 2.5″ in depth) bush beans are cleaned with the apical leaves removed using pointed forceps, leaving only the cotyledon leaves. Plants are inoculated with about 30 mixed-stage aphid colony 24 hours before spraying. Potted bean plants are sprayed with the test solutions using a DeVilbiss hand atomizer (20-30 psi). Treated plants are allowed to air-dry in the laboratory for about an hour before placing them inside the holding room maintained at 27° C., 50% RH and […] conditions. Stem of the treated bean plants are inserted in the slit of cut circle filter paper to catch the falling dead aphids. Assessment of population reduction (% mortality) is done after 72 hours.

SMILES	mortality at 2500 ppm [1]	mortality at 2500 ppm [2]	mortality at 2500 ppm [3]	mortality at 300 ppm [4]	mortality at 2500 ppm [5]	mortality at 9.9 ppm [1]	% mortality in comparison to untreated controls, B.6 [6]	% mortality in comparison to untreated controls, B.7 [7]	mortality at 7.9 ppm [1]	mortality at 7.9 ppm [3]
CC(NC(=O)c1cc(Br)cc(C(F)(F)F)c1)c1nccnc1-c1ncn(CC(F)(F)F)n1 (centres unmarked) [Compound I1-1, 3-bromo-N-[1-[3-[1-(2,2,2-trifluoroethyl)-1,2,4-triazol-3-yl]pyrazin-2-yl]ethyl]-5-(trifluoromethyl)benzamide]	≥ 75%	≥ 75%	≥ 75%	≥ 75%	≥ 75%					
COc1ccc(Cn2cnc(-c3nccnc3C(C)NC(=O)c3cc(Cl)cc(C(F)(F)F)c3)n2)cc1 (centres unmarked) [Compound I1-4, 3-chloro-N-[1-[3-[1-[(4-methoxyphenyl)methyl]-1,2,4-triazol-3-yl]pyrazin-2-yl]ethyl]-5-(trifluoromethyl)benzamide]			≥ 75%	≥ 75%						
CC(c1nccnc1-c1ncn(C(C)C)n1)N(C)C(=O)c1cc(Cl)cc(S(C)(=O)=O)c1 (centres unmarked) [Compound I1-5, 3-chloro-N-[1-[3-(1-isopropyl-1,2,4-triazol-3-yl)pyrazin-2-yl]ethyl]-N-methyl-5-methylsulfonyl-benzamide]	≥ 75%		≥ 75%	≥ 75%	≥ 75%					
CC(NC(=O)c1cc(Cl)cc(S(C)(=O)=O)c1)c1nccnc1-c1ncn(C(C)C)n1 (centres unmarked) [Compound I1-7, 3-chloro-N-[1-[3-(1-isopropyl-1,2,4-triazol-3-yl)pyrazin-2-yl]ethyl]-5-methylsulfonyl-benzamide]	≥ 75%		≥ 75%	≥ 75%	≥ 75%					
CC(NC(=O)c1cc(Cl)cc(C(F)(F)F)c1)c1nccnc1-c1ncn(CC=C(Cl)Cl)n1 (centres unmarked) [Compound I1-11, 3-chloro-N-[1-[3-[1-(3,3-dichloroallyl)-1,2,4-triazol-3-yl]pyrazin-2-yl]ethyl]-5-(trifluoromethyl)benzamide]		≥ 75%	≥ 75%		≥ 75%					
CC(NC(=O)c1cc(C(F)(F)F)cc(C(F)(F)F)c1)c1nccnc1-c1ncn(C)n1 (centres unmarked) [Compound I1-12]	≥ 75%	≥ 75%	≥ 75%	≥ 75%	≥ 75%	100%	100%	100%		
CC(NC(=O)c1cc(C(F)(F)F)cc(C(F)(F)F)c1)c1nccnc1-c1ncn(CC(F)(F)F)n1 (centres unmarked) [Compound I1-13]	≥ 75%	≥ 75%	≥ 75%	≥ 75%	≥ 75%		100%		100%	100%
CC(NC(=O)c1cc(Cl)cc(C(F)(F)F)c1)c1nccnc1-c1ncn(CC2CC2(Cl)Cl)n1 (centres unmarked) [Compound I1-14, 3-chloro-N-[1-[3-[1-[(2,2-dichlorocyclopropyl)methyl]-1,2,4-triazol-3-yl]pyrazin-2-yl]ethyl]-5-(trifluoromethyl)benzamide]	≥ 75%	≥ 75%	≥ 75%	≥ 75%	≥ 75%					
CC(NC(=O)c1cc(Cl)nc(Cl)c1)c1nccnc1-c1ncn(-c2ccccc2)n1 (centres unmarked) [Compound I2-1, 2,6-dichloro-N-[1-[3-(1-phenyl-1,2,4-triazol-3-yl)pyrazin-2-yl]ethyl]pyridine-4-carboxamide]	≥ 75%		≥ 75%		≥ 75%					
Cc1cnn(-c2nccnc2C(C)NC(=O)c2cc(C(F)(F)F)cc(C(F)(F)F)c2)n1 (centres unmarked) [WO 2021/037614 P1, reference compound]						0%	0%	0%		
CC(NC(=O)c1cc(C(F)(F)F)cc(C(F)(F)F)c1)c1nccnc1-n1cncn1 (centres unmarked) [WO 2021/037614 P46, reference compound]						25%	0%	50%	0%	50%
